Patent US20070248727A1, “Method for Removing Hydrohydroquinone” (KAO CORPORATION, priority 2004, published 2007)

Tested on: rats
Assay: Urinary hydrogen peroxide level after giving coffee to rats
Type: in vivo
Details: rats given coffee
Text: It is therefore desired to remove hydroxyhydroquinone from coffee.

generation of hydrogen peroxide in the bodies: caused by hydroxyhydroquinone
Compound: Oc1ccc(O)c(O)c1 [hydroxyhydroquinone]
